Experimental data from patent publication US20080221086A1, “Novel Inhibitors of Glutaminyl Cyclase” (PROBIODRUG AG, priority 2006, published 2008).
Read-outs that look alike come from different tables or passages of the source.

Target: hQC (Homo sapiens, UniProt Q16769)
Test: Fluorometric assay of glutaminyl cyclase (QC) inhibition, H-Gln-βNA or H-Gln-AMC substrate
Type: biochemical
Procedure: All compounds were immediately tested regarding their activity as hQC inhibitors.
The purity of the compounds was determined by HPLC-MS. The IC50 value against hQC was measured using the fluorescent assay.
All measurements were performed with a BioAssay Reader HTS-7000Plus for microplates (Perkin Elmer) at 30° C. QC activity was evaluated fluorometrically using H-Gln-βNA. The samples consisted of 0.2 mM fluorogenic substrate, 0.25 U pyroglutamyl aminopeptidase (Unizyme, Hørsholm, Denmark) in 0.2 M Tris/HCl, pH 8.0 containing 20 mM EDTA and an appropriately diluted aliquot of QC in a final volume of 250 μl. Excitation/emission wavelengths were 320/410 nm. The assay reactions were initiated by addition of glutaminyl cyclase. QC activity was determined from a standard curve of β-naphthylamine under assay conditions. One unit is defined as the amount of QC catalyzing the formation of 1 μmol pGlu-βNA from H-Gln-βNA per minute under the described conditions.
In a second fluorometric assay, QC was activity was determined using H-Gln-AMC as substrate. Reactions were carried out at 30° C. utilizing the NOVOStar reader for microplates (BMG labtechnologies). The samples consisted of varying concentrations of the fluorogenic substrate, 0.1 U pyroglutamyl aminopeptidase (Qiagen) in 0.05 M Tris/HCl, pH 8.0 containing 5 mM EDTA and an appropriately diluted aliquot of QC in a final volume of 250 μl. Excitation/emission wavelengths were 380/460 nm. The assay reactions were initiated by addition of glutaminyl cyclase. QC activity was determined from a standard curve of 7-amino-4-methylcoumarin under assay conditions. The kinetic data were evaluated using GraFit software.
For inhibitor testing, the sample composition was the same as described above, except of the putative inhibitory compound added. For a rapid test of QC-inhibition, samples contained 4 mM of the respective inhibitor and a substrate concentration at 1 KM. For detailed investigations of the inhibition and determination of Ki-values, influence of the inhibitor on the auxiliary enzymes was investigated first. In every case, there was no influence on either enzyme detected, thus enabling the reliable determination of the QC inhibition. The inhibitory constant was evaluated by fitting the set of progress curves to the general equation for competitive inhibition using GraFit software.

[1] = compound from preparative synthesis, purified by chromatography, fluorescent assay, read-out: IC50 hQC

Sequence of hQC (Q16769 29-361): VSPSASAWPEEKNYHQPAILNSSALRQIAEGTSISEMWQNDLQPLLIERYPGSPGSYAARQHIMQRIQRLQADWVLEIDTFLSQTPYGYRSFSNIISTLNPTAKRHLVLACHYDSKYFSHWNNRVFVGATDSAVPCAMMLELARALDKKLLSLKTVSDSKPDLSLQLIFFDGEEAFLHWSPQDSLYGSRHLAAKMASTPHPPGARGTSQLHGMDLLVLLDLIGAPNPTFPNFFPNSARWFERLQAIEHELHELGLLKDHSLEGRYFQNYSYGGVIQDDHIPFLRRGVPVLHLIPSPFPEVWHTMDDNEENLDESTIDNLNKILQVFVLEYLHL

| IC50 (read-out: IC50) [µM] | IC50 [1] [µM] | Structure (SMILES) |
| --- | --- | --- |
| 4 | – | O=C1N/C(=N\c2ccc3c(c2)OCCO3)C(c2ccccc2Cl)N1CCCn1ccnc1 (stereo not drawn) [Compound 34, 5-(2-Chloro-phenyl)-4-2,3-dihydro-benzo1,4dioxin-6-ylimino-1-(3-imidazol-1-yl-propyl)-imidazolidin-2-one] |
| 5.8 | – | CCCCC1/C(=N\c2ccc3c(c2)OCCO3)NC(=O)N1CCCn1ccnc1 (stereo not drawn) [Compound 35, 5-Butyl-4-2,3-dihydro-benzo1,4dioxin-6-ylimino-1-(3-imidazol-1-yl-propyl)-imidazolidin-2-one] |
| 6.7 | – | CCCC/N=C1\NC(=O)N(CCCn2ccnc2)C1c1cccc(F)c1F (stereo not drawn) [Compound 36, 4-Butylimino-5-(2,3-difluoro-phenyl)-1-(3-imidazol-1-ylpropyl)-imidazolidin-2-one] |
| 5.8 | – | CCCC/N=C1/NC(=O)N(CCCn2ccnc2)C1c1cc(F)cc(F)c1 (stereo not drawn) [Compound 37, 4-Butylimino-5-(3,5-difluoro-phenyl)-1-(3-imidazol-1-ylpropyl)-imidazolidin-2-one] |
| 7.6 | – | O=C1N/C(=N/CCc2cccs2)C(c2ccccc2)N1CCCn1ccnc1 (stereo not drawn) [Compound 38, 1-(3-Imidazol-1-yl-propyl)-5-phenyl-4-2-thiophen-2-yl-ethylimino-imidazolidin-2-one] |
| 7.6 | – | O=C1N/C(=N/CCc2cccs2)C(C2CCC=CO2)N1CCCn1ccnc1 (stereo not drawn) [Compound 39, 5-(3,4-Dihydro-2H-pyran-2-yl)-1-(3-imidazol-1-yl-propyl)-4-2-thiophen-2-yl-ethylimino-imidazolidin-2-one] |
| 4.9 | – | O=C1N/C(=N\CCc2cccs2)C(c2cccc(F)c2F)N1CCCn1ccnc1 (stereo not drawn) [Compound 40, 5-(2,3-Difluoro-phenyl)-1-(3-imidazol-1-yl-propyl)-4-2-thiophen-2-yl-ethylimino-imidazolidin-2-one] |
| 3.1 | – | O=C1N/C(=N/CCc2cccs2)C(c2cc(F)cc(F)c2)N1CCCn1ccnc1 (stereo not drawn) [Compound 41, 5-(3,5-Difluoro-phenyl)-1-(3-imidazol-1-yl-propyl)-4-2-thiophen-2-yl-ethylimino-imidazolidin-2-one] |
| 5.8 | – | O=C1N/C(=N/CCc2cccs2)C(c2ccc(Cl)c(F)c2)N1CCCn1ccnc1 (stereo not drawn) [Compound 42, 5-(4-Chloro-3-fluoro-phenyl)-1-(3-imidazol-1-yl-propyl)-4-2-thiophen-2-yl-ethylimino-imidazolidin-2-one] |
| 0.04 | 0.858 | O=C1N/C(=N\CCc2cccs2)C(c2ccccc2Cl)N1CCCn1ccnc1 (stereo not drawn) [Compound 43, 5-(2-Chloro-phenyl)-1-(3-imidazol-1-yl-propyl)-4-(2-thiophen-2-yl-ethylimino)-imidazolidin-2-one] |
| 5.8 | – | O=C1N/C(=N\CCc2cccs2)C(c2ccccc2F)N1CCCn1ccnc1 (stereo not drawn) [Compound 44, 5-(2-Fluoro-phenyl)-1-(3-imidazol-1-yl-propyl)-4-(2-thiophen-2-yl-ethylimino)-imidazolidin-2-one] |
| 4.9 | – | O=C1N/C(=N/CCc2cccs2)C(c2ccc(O)cc2)N1CCCn1ccnc1 (stereo not drawn) [Compound 45, 5-(4-Hydroxy-phenyl)-1-(3-imidazol-1-yl-propyl)-4-2-thiophen-2-yl-ethylimino-imidazolidin-2-one] |
| 2.2 | – | Cc1cccc(C2C(=NCCc3c[nH]c4ccccc34)NC(=O)N2CCCn2ccnc2)c1O (stereo not drawn) [Compound 46, 5-(2-Hydroxy-3-methyl-phenyl)-1-(3-imidazol-1-yl-propyl)-4-2-(1H-indol-3-yl)-ethylimino-imidazolidin-2-one] |
| 4 | – | O=C1N/C(=N/CCc2c[nH]c3ccccc23)C(c2ccsc2)N1CCCn1ccnc1 (stereo not drawn) [Compound 47, 1-(3-Imidazol-1-yl-propyl)-4-2-(1H-indol-3-yl)-ethylimino-5-thiophen-3-yl-imidazolidin-2-one] |
| 7.6 | – | CC1/C(=N\CCc2c[nH]c3ccccc23)NC(=O)N1CCCn1ccnc1 (stereo not drawn) [Compound 48, 1-(3-Imidazol-1-yl-propyl)-4-2-(1H-indol-3-yl)-ethylimino-5-methyl-imidazolidin-2-one] |
| 4.9 | – | O=C1N/C(=N/CCc2c[nH]c3ccccc23)C(c2ccccc2)N1CCCn1ccnc1 (stereo not drawn) [Compound 49, 1-(3-Imidazol-1-yl-propyl)-4-2-(1H-indol-3-yl)-ethylimino-5-phenyl-imidazolidin-2-one] |

| IC50 (read-out: IC50) [µM] | IC50 [1] [µM] | Structure (SMILES) |
| --- | --- | --- |
| 6.7 | – | O=C1N/C(=N/CCc2c[nH]c3ccccc23)C(c2ccc[nH]2)N1CCCn1ccnc1 (stereo not drawn) [Compound 50, 1-(3-Imidazol-1-yl-propyl)-4-2-(1H-indol-3-yl)-ethylimino-5-(1H-pyrrol-2-yl)-imidazolidin-2-one] |
| 5.8 | – | O=C1N/C(=N/CCc2c[nH]c3ccccc23)C(C2CCC=CO2)N1CCCn1ccnc1 (stereo not drawn) [Compound 51, 5-(3,4-Dihydro-2H-pyran-2-yl)-1-(3-imidazol-1-yl-propyl)-4-2-(1H-indol-3-yl)-ethylimino-imidazolidin-2-one] |
| 2.2 | 0.626 | O=C1N/C(=N\CCc2c[nH]c3ccccc23)C(c2cccc(F)c2F)N1CCCn1ccnc1 (stereo not drawn) [Compound 52, 5-(2,3-Difluoro-phenyl)-1-(3-imidazol-1-yl-propyl)-4-(2-(1H-indol-3-yl)-ethylimino)-imidazolidin-2-one] |
| 4 | – | O=C1N/C(=N/CCc2c[nH]c3ccccc23)C(c2cc(F)cc(F)c2)N1CCCn1ccnc1 (stereo not drawn) [Compound 53, 5-(3,5-Difluoro-phenyl)-1-(3-imidazol-1-yl-propyl)-4-2-(1H-indol-3-yl)-ethylimino-imidazolidin-2-one] |
| 3.1 | – | O=C1N/C(=N/CCc2c[nH]c3ccccc23)C(c2ccc(Cl)c(F)c2)N1CCCn1ccnc1 (stereo not drawn) [Compound 54, 5-(4-Chloro-3-fluoro-phenyl)-1-(3-imidazol-1-yl-propyl)-4-2-(1H-indol-3-yl)-ethylimino-imidazolidin-2-one] |
| 2.2 | 0.482 | O=C1N/C(=N/CCc2c[nH]c3ccccc23)C(c2ccccc2Cl)N1CCCn1ccnc1 (stereo not drawn) [Compound 55, 5-(2-Chloro-phenyl)-1-(3-imidazol-1-yl-propyl)-4-2-(1H-indol-3-yl)-ethylimino-imidazolidin-2-one] |
| 8.5 | – | O=C1N/C(=N/CCc2c[nH]c3ccccc23)C(CO)N1CCCn1ccnc1 (stereo not drawn) [Compound 56, 5-Hydroxymethyl-1-(3-imidazol-1-yl-propyl)-4-2-(1H-indol-3-yl)-ethylimino-imidazolidin-2-one] |
| 5.8 | – | O=C1N/C(=N/CCc2c[nH]c3ccccc23)C(C2CC2)N1CCCn1ccnc1 (stereo not drawn) [Compound 57, 5-Cyclopropyl-1-(3-imidazol-1-yl-propyl)-4-2-(1H-indol-3-yl)-ethylimino-imidazolidin-2-one] |
| 6.7 | – | O=C1N/C(=N/CCc2c[nH]c3ccccc23)C(c2ccco2)N1CCCn1ccnc1 (stereo not drawn) [Compound 58, 5-Furan-2-yl-1-(3-imidazol-1-yl-propyl)-4-2-(1H-indol-3-yl)-ethylimino-imidazolidin-2-one] |
| 4.9 | – | CCCCC1/C(=N\CCc2c[nH]c3ccccc23)NC(=O)N1CCCn1ccnc1 (stereo not drawn) [Compound 59, 5-Butyl-1-(3-imidazol-1-yl-propyl)-4-2-(1H-indol-3-yl)-ethylimino-imidazolidin-2-one] |
| 5.8 | – | CCC1/C(=N\CCc2c[nH]c3ccccc23)NC(=O)N1CCCn1ccnc1 (stereo not drawn) [Compound 60, 5-Ethyl-1-(3-imidazol-1-yl-propyl)-4-2-(1H-indol-3-yl)-ethylimino-imidazolidin-2-one] |
| 2.2 | 0.452 | O=C1N/C(=N/CCc2c[nH]c3ccccc23)C(c2ccccc2F)N1CCCn1ccnc1 (stereo not drawn) [Compound 61, 5-(2-Fluoro-phenyl)-1-(3-imidazol-1-yl-propyl)-4-(2-(1H-indol-3-yl)-ethylimino)-imidazolidin-2-one] |
| 3.1 | – | O=C1N/C(=N/CCc2c[nH]c3ccccc23)C(c2cccc(F)c2)N1CCCn1ccnc1 (stereo not drawn) [Compound 62, 5-(3-Fluoro-phenyl)-1-(3-imidazol-1-yl-propyl)-4-2-(1H-indol-3-yl)-ethylimino-imidazolidin-2-one] |
| 3.1 | – | O=C1N/C(=N/CCc2c[nH]c3ccccc23)C(c2ccc(F)cc2)N1CCCn1ccnc1 (stereo not drawn) [Compound 63, 5-(4-Fluoro-phenyl)-1-(3-imidazol-1-yl-propyl)-4-2-(1H-indol-3-yl)-ethylimino-imidazolidin-2-one] |
| 1.3 | – | O=C1N/C(=N/CCc2c[nH]c3ccccc23)C(c2ccc(O)cc2)N1CCCn1ccnc1 (stereo not drawn) [Compound 64, 5-(4-Hydroxy-phenyl)-1-(3-imidazol-1-yl-propyl)-4-2-(1H-indol-3-yl)-ethylimino-imidazolidin-2-one] |
| 5.8 | – | O=C(C/N=C1/NC(=O)N(CCCn2ccnc2)C1c1ccsc1)N1CCc2ccccc2C1 (stereo not drawn) [Compound 65, 4-2-(3,4-Dihydro-1H-isoquinolin-2-yl)-2-oxo-ethylimino-1-(3-imidazol-1-yl-propyl)-5-thiophen-3-yl-imidazolidin-2-one] |
